Source: US12673975B2, “Cyclic peptide, cell scaffold material, cell separating material, and medium” (FUJIFILM Corporation, priority 2019, dated 2026)
Read-outs that look alike come from different tables or passages of the source. Starred links: 1 amine or outer side, 2 acyl side, 3 side chain; linkers in the order of their positions; H or OH if unused. Positions of bridges follow the written chain, without caps; N, C: chain ends. Non-standard residues stand in square brackets, D forms with d. Residues, ends and D or L forms follow the SMILES beside them. hCys = N[C@@H](CCS)C(=O)O; Dab = NCC[C@H](N)C(=O)O; X2 = O=C(C[*:1])[*:2]

Key:
human integrin αvβ5 = human integrin αvβ5 (Homo sapiens, UniProt P06756+P18084); experiment: Evaluation of integrin binding property (surface plasmon resonance, Biacore 3000, immobilized cyclic peptide)
Chain of human integrin αvβ5 (P06756 31-1048): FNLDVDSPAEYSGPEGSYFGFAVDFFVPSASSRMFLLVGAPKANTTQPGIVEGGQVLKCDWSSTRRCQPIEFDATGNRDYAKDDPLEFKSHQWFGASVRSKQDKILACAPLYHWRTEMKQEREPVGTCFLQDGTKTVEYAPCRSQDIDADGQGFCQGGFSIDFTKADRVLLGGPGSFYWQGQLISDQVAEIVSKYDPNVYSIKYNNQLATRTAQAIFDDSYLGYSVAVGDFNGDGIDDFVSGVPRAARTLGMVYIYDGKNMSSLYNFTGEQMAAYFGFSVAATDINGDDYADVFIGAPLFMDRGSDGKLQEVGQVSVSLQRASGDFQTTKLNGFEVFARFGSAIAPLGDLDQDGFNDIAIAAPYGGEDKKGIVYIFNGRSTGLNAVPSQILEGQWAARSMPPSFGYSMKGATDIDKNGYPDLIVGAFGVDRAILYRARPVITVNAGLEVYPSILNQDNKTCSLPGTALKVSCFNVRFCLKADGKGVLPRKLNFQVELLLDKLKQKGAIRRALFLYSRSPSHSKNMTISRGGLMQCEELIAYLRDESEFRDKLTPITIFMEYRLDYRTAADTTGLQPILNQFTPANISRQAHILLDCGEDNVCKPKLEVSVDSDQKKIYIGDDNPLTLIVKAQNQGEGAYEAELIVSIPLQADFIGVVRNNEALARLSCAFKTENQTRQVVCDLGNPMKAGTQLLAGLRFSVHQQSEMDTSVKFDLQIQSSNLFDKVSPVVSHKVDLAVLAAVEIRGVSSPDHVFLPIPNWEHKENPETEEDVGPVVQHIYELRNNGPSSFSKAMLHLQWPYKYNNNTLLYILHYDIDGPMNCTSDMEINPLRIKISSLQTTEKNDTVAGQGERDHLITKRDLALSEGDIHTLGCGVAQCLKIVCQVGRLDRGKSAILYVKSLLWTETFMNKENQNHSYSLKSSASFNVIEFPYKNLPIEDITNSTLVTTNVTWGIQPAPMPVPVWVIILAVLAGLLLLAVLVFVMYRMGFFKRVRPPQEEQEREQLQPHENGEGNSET
Chain of human integrin αvβ5 (P18084 24-799): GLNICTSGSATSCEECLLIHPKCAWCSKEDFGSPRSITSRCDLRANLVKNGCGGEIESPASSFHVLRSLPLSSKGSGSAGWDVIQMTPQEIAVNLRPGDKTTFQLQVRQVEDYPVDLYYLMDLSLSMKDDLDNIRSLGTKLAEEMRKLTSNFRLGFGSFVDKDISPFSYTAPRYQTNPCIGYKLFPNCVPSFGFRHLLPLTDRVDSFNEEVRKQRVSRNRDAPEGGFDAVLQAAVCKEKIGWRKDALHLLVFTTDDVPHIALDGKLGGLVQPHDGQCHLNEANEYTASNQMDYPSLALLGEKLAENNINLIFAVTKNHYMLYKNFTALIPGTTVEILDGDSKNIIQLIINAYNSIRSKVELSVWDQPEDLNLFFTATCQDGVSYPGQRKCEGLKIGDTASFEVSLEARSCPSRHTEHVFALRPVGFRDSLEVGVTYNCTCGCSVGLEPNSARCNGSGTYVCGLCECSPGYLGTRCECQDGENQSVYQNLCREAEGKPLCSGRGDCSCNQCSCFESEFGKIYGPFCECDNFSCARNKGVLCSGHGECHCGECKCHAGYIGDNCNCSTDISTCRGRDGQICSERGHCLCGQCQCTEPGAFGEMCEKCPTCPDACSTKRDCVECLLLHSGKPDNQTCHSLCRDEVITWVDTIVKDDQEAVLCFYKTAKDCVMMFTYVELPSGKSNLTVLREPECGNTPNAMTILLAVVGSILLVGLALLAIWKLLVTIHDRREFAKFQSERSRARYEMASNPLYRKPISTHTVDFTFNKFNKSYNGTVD
Outline: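 Human αvβ5 (30-1,000 nM) flowed for 10 min at 25 °C over immobilized cyclic peptide in 20 mM HEPES, 150 mM NaCl, 5 mM MgCl2, pH 7.4, followed by 30 min running buffer and 0.5 M EDTA regeneration. Dissociation constant from peptide minus unimmobilized channel, scored into standard grades.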

[1] = Evaluation of molecule stability (alkali treatment, residual rate by LC/MS); assay type: physicochemical; conditions: for Performance evaluation: Stability (residual rate of cyclic peptide after alkali treatment): 500 μM peptide aqueous solution plus equivalent of 1 M sodium hydroxide, 15° C., 3 hours, LC/MS peak area; for Stability (molecule stability, residual rate of the cyclic peptide rank): alkali treatment, residual rate by LC/MS
Outline: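 Stability read as percent of summed LC/MS peak area remaining versus untreated peptide (C18, 45 °C, 10 mM ammonium formate pH 3, ESI positive/negative). Treatment: 500 μM peptide in water plus an equivalent of 1 M NaOH, 15 °C for 3 hours.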

[2] = SPR, 25° C., HEPES buffer with 5 mM magnesium chloride, integrin 30-1,000 nM, read-out: Performance evaluation: Binding activity (dissociation constant between the cyclic peptide and human integrin αvβ5)
[3] = surface plasmon resonance, immobilized cyclic peptide, human integrin αvβ5, read-out: Binding activity (integrin binding property, dissociation constant rank)

SMILES | Kd (human integrin αvβ5; [2]) | Performance evaluation: Stability (residual rate of cyclic peptide after alkali treatment) [1] | Kd (human integrin αvβ5; [3]) | Stability (molecule stability, residual rate of the cyclic peptide rank) [1]
CC[C@H](C)[C@@H]1NC(=O)[C@@H](NC(=O)[C@H](C)NC(=O)[C@H](CCCCN)NC(=O)[C@H](CCCCN)NC(=O)[C@@H](N)CCCCN)CCSCC(=O)NCC[C@@H](C(=O)NCC(=O)O)NC(=O)[C@H](C)NC(=O)[C@H](Cc2ccccc2)NC(=O)[C@H](CO)NC(=O)[C@H](CC(=O)O)NC(=O)CNC(=O)[C@H](CCCNC(=N)N)NC(=O)[C@@H]2CCCN2C1=O [Cyclic peptide 93, KKKA-(Hcy)-IPRGDSFA(Dab(acetyl))G] (H-KKKA[hCys]IPRGDSFA[Dab]G-OH; linker 5-14 via X2) | < 50 nM | A (The residual rate of the cyclic peptide is 70% or more.) | – | –
CC[C@H](C)[C@@H]1NC(=O)[C@@H](NC(=O)CNC(=O)[C@H](CCCCN)NC(=O)[C@H](CCCCN)NC(=O)[C@@H](N)CCCCN)CCSCC(=O)NCC[C@@H](C(=O)N[C@@H](C)C(=O)O)NC(=O)[C@H](C)NC(=O)[C@H](Cc2ccccc2)NC(=O)[C@H](CO)NC(=O)[C@H](CC(=O)O)NC(=O)CNC(=O)[C@H](CCCNC(=N)N)NC(=O)[C@@H]2CCCN2C1=O [Cyclic peptide 94, KKKG-(Hcy)-IPRGDSFA(Dab(acetyl))A] (H-KKKG[hCys]IPRGDSFA[Dab]A-OH; linker 5-14 via X2) | < 50 nM | A (The residual rate of the cyclic peptide is 70% or more.) | – | –
CC[C@H](C)[C@@H]1NC(=O)[C@@H](NC(=O)CNC(=O)[C@H](CCCCN)NC(=O)[C@H](CCCCN)NC(=O)[C@@H](N)CCCCN)CCSCC(=O)NCC[C@@H](C(=O)NCC(=O)O)NC(=O)[C@H](C)NC(=O)[C@H](Cc2ccccc2)NC(=O)[C@H](CO)NC(=O)[C@H](CC(=O)O)NC(=O)CNC(=O)[C@H](CCCNC(=N)N)NC(=O)[C@@H]2CCCN2C1=O [Cyclic peptide 95, KKKG-(Hcy)-IPRGDSFA(Dab(acetyl))G] (H-KKKG[hCys]IPRGDSFA[Dab]G-OH; linker 5-14 via X2) | < 50 nM | A (The residual rate of the cyclic peptide is 70% or more.) | – | –
CC(C)[C@@H]1NC(=O)[C@@H](NC(=O)[C@H](C)NC(=O)[C@H](CCCCN)NC(=O)[C@H](CCCCN)NC(=O)[C@@H](N)CCCCN)CCSCC(=O)NCC[C@@H](C(=O)N[C@@H](C)C(=O)O)NC(=O)[C@H](C)NC(=O)[C@H](Cc2ccccc2)NC(=O)[C@H](CO)NC(=O)[C@H](CC(=O)O)NC(=O)CNC(=O)[C@H](CCCNC(=N)N)NC(=O)[C@@H]2CCCN2C1=O [Cyclic peptide 96, KKKA-(Hcy)-VPRGDSFA(Dab(acetyl))A] (H-KKKA[hCys]VPRGDSFA[Dab]A-OH; linker 5-14 via X2) | < 50 nM | A (The residual rate of the cyclic peptide is 70% or more.) | – | –
CC(C)[C@@H]1NC(=O)[C@@H](NC(=O)[C@H](C)NC(=O)[C@H](CCCCN)NC(=O)[C@H](CCCCN)NC(=O)[C@@H](N)CCCCN)CCSCC(=O)NCC[C@@H](C(=O)NCC(=O)O)NC(=O)[C@H](C)NC(=O)[C@H](Cc2ccccc2)NC(=O)[C@H](CO)NC(=O)[C@H](CC(=O)O)NC(=O)CNC(=O)[C@H](CCCNC(=N)N)NC(=O)[C@@H]2CCCN2C1=O [Cyclic peptide 97, KKKA-(Hcy)-VPRGDSFA(Dab(acetyl))G] (H-KKKA[hCys]VPRGDSFA[Dab]G-OH; linker 5-14 via X2) | < 50 nM | A (The residual rate of the cyclic peptide is 70% or more.) | – | –
CC(C)[C@@H]1NC(=O)[C@@H](NC(=O)CNC(=O)[C@H](CCCCN)NC(=O)[C@H](CCCCN)NC(=O)[C@@H](N)CCCCN)CCSCC(=O)NCC[C@@H](C(=O)N[C@@H](C)C(=O)O)NC(=O)[C@H](C)NC(=O)[C@H](Cc2ccccc2)NC(=O)[C@H](CO)NC(=O)[C@H](CC(=O)O)NC(=O)CNC(=O)[C@H](CCCNC(=N)N)NC(=O)[C@@H]2CCCN2C1=O [Cyclic peptide 98, KKKG-(Hcy)-VPRGDSFA(Dab(acetyl))A] (H-KKKG[hCys]VPRGDSFA[Dab]A-OH; linker 5-14 via X2) | < 50 nM | A (The residual rate of the cyclic peptide is 70% or more.) | – | –
CC(C)[C@@H]1NC(=O)[C@@H](NC(=O)CNC(=O)[C@H](CCCCN)NC(=O)[C@H](CCCCN)NC(=O)[C@@H](N)CCCCN)CCSCC(=O)NCC[C@@H](C(=O)NCC(=O)O)NC(=O)[C@H](C)NC(=O)[C@H](Cc2ccccc2)NC(=O)[C@H](CO)NC(=O)[C@H](CC(=O)O)NC(=O)CNC(=O)[C@H](CCCNC(=N)N)NC(=O)[C@@H]2CCCN2C1=O [Cyclic peptide 99, KKKG-(Hcy)-VPRGDSFA(Dab(acetyl))G] (H-KKKG[hCys]VPRGDSFA[Dab]G-OH; linker 5-14 via X2) | < 50 nM | A (The residual rate of the cyclic peptide is 70% or more.) | – | –
CC[C@H](C)[C@@H]1NC(=O)[C@@H](NC(=O)[C@H](C)N)CCSCC(=O)NCC[C@@H](C(=O)N[C@@H](C)C(=O)N[C@@H](CCCCN)C(=O)N[C@@H](CCCCN)C(=O)N[C@@H](CCCCN)C(=O)O)NC(=O)[C@H](C)NC(=O)[C@H](Cc2ccccc2)NC(=O)[C@H](CO)NC(=O)[C@H](CC(=O)O)NC(=O)CNC(=O)[C@H](CCCNC(=N)N)NC(=O)[C@@H]2CCCN2C1=O [Cyclic peptide 100, A-(Hcy)-IPRGDSFA(Dab(acetyl))AKKK] (H-A[hCys]IPRGDSFA[Dab]AKKK-OH; linker 2-11 via X2) | < 50 nM | A (The residual rate of the cyclic peptide is 70% or more.) | – | –
CC[C@H](C)[C@@H]1NC(=O)[C@@H](NC(=O)[C@H](CCCCN)NC(=O)[C@H](CCCCN)NC(=O)[C@@H](N)CCCCN)CCSCC(=O)NCC[C@@H](C(=O)O)NC(=O)[C@H](C)NC(=O)[C@H](Cc2ccccc2)NC(=O)[C@H](CO)NC(=O)[C@H](CC(=O)O)NC(=O)CNC(=O)[C@H](CCCNC(=N)N)NC(=O)[C@@H]2CCCN2C1=O [Cyclic peptide 101, KKK-(Hcy)-IPRGDSFA(Dab(acetyl))] (H-KKK[hCys]IPRGDSFA[Dab]-OH; linker 4-13 via X2) | – | – | < 50 nM | A (The residual rate of the cyclic peptide is 70% or more.)
CC(C)[C@@H]1NC(=O)[C@@H](NC(=O)[C@H](CCCCN)NC(=O)[C@H](CCCCN)NC(=O)[C@@H](N)CCCCN)CCSCC(=O)NCC[C@@H](C(=O)O)NC(=O)[C@H](C)NC(=O)[C@H](Cc2ccccc2)NC(=O)[C@H](CO)NC(=O)[C@H](CC(=O)O)NC(=O)CNC(=O)[C@H](CCCNC(=N)N)NC(=O)[C@@H]2CCCN2C1=O [Cyclic peptide 102, KKK-(Hcy)-VPRGDSFA(Dab(acetyl))] (H-KKK[hCys]VPRGDSFA[Dab]-OH; linker 4-13 via X2) | – | – | < 50 nM | A (The residual rate of the cyclic peptide is 70% or more.)
CC(C)[C@@H]1NC(=O)[C@@H](N)CCSCC(=O)NCC[C@@H](C(=O)N[C@@H](CCCCN)C(=O)N[C@@H](CCCCN)C(=O)N[C@@H](CCCCN)C(=O)O)NC(=O)[C@H](C)NC(=O)[C@H](Cc2ccccc2)NC(=O)[C@H]([C@@H](C)O)NC(=O)[C@H](CC(=O)O)NC(=O)CNC(=O)[C@H](CCCNC(=N)N)NC(=O)[C@@H]2CCCN2C1=O [Cyclic peptide 103, (Hcy)-VPRGDTFA(Dab(acetyl))KKK] (H-[hCys]VPRGDTFA[Dab]KKK-OH; linker 1-10 via X2) | – | – | < 50 nM | A (The residual rate of the cyclic peptide is 70% or more.)
